The NIST ThermoML archive (doi:10.1016/j.fluid.2007.08.010)
Numbers after ± are expanded uncertainties.

Settings: Liquid, Falling or rolling sphere viscometry

Row | SMILES | viscosity (313.2 K, 690 kPa) | viscosity (313.2 K, 5000 kPa) | viscosity (313.2 K, 10000 kPa) | viscosity (313.2 K, 20000 kPa) | viscosity (313.2 K, 30000 kPa) | viscosity (313.2 K, 40000 kPa) | viscosity (313.2 K, 50000 kPa) | viscosity (313.2 K, 60000 kPa) | viscosity (333.2 K, 690 kPa) | viscosity (333.2 K, 5000 kPa) | viscosity (333.2 K, 10000 kPa) | viscosity (333.2 K, 20000 kPa) | viscosity (333.2 K, 30000 kPa) | viscosity (333.2 K, 40000 kPa) | viscosity (333.2 K, 50000 kPa) | viscosity (333.2 K, 60000 kPa) | viscosity (353.2 K, 690 kPa) | viscosity (353.2 K, 5000 kPa) | viscosity (353.2 K, 10000 kPa) | viscosity (353.2 K, 20000 kPa) | also measured
1 | CCCCCCCCCCCCCC [tetradecane] | 1.653 ± 0.068 mPa·s | 1.738 ± 0.071 mPa·s | 1.831 ± 0.075 mPa·s | 2.025 ± 0.083 mPa·s | 2.241 ± 0.092 mPa·s | 2.483 ± 0.1 mPa·s | 2.767 ± 0.11 mPa·s | 3.093 ± 0.13 mPa·s | 1.218 ± 0.05 mPa·s | 1.283 ± 0.053 mPa·s | 1.345 ± 0.055 mPa·s | 1.473 ± 0.06 mPa·s | 1.607 ± 0.066 mPa·s | 1.74 ± 0.071 mPa·s | 1.886 ± 0.077 mPa·s | 2.043 ± 0.084 mPa·s | 0.896 ± 0.037 mPa·s | 0.957 ± 0.039 mPa·s | 1.017 ± 0.042 mPa·s | 1.128 ± 0.046 mPa·s | viscosity (353.2 K, 30000 kPa): 1.229 ± 0.05 mPa·s; viscosity (353.2 K, 40000 kPa): 1.325 ± 0.054 mPa·s; viscosity (353.2 K, 50000 kPa): 1.423 ± 0.058 mPa·s; viscosity (353.2 K, 60000 kPa): 1.518 ± 0.062 mPa·s; viscosity (373.2 K, 690 kPa): 0.66 ± 0.027 mPa·s; viscosity (373.2 K, 5000 kPa): 0.708 ± 0.029 mPa·s; viscosity (373.2 K, 10000 kPa): 0.757 ± 0.031 mPa·s; viscosity (373.2 K, 20000 kPa): 0.852 ± 0.035 mPa·s; viscosity (373.2 K, 30000 kPa): 0.943 ± 0.039 mPa·s; viscosity (373.2 K, 40000 kPa): 1.031 ± 0.042 mPa·s; viscosity (373.2 K, 50000 kPa): 1.117 ± 0.046 mPa·s; viscosity (373.2 K, 60000 kPa): 1.202 ± 0.049 mPa·s; viscosity (393.2 K, 690 kPa): 0.527 ± 0.022 mPa·s; viscosity (393.2 K, 5000 kPa): 0.568 ± 0.023 mPa·s; viscosity (393.2 K, 10000 kPa): 0.609 ± 0.025 mPa·s; viscosity (393.2 K, 20000 kPa): 0.687 ± 0.028 mPa·s; viscosity (393.2 K, 30000 kPa): 0.767 ± 0.031 mPa·s; viscosity (393.2 K, 40000 kPa): 0.839 ± 0.034 mPa·s; viscosity (393.2 K, 50000 kPa): 0.908 ± 0.037 mPa·s; viscosity (393.2 K, 60000 kPa): 0.976 ± 0.04 mPa·s
2 | c1ccccc1 [benzene] | 0.479 ± 0.02 mPa·s | 0.5 ± 0.02 mPa·s | 0.524 ± 0.021 mPa·s | 0.574 ± 0.023 mPa·s | 0.625 ± 0.025 mPa·s | 0.675 ± 0.027 mPa·s | 0.725 ± 0.029 mPa·s | 0.774 ± 0.031 mPa·s | 0.387 ± 0.016 mPa·s | 0.404 ± 0.016 mPa·s | 0.424 ± 0.017 mPa·s | 0.466 ± 0.019 mPa·s | 0.509 ± 0.021 mPa·s | 0.553 ± 0.023 mPa·s | 0.597 ± 0.024 mPa·s | 0.641 ± 0.026 mPa·s | 0.317 ± 0.013 mPa·s | 0.331 ± 0.013 mPa·s | 0.347 ± 0.014 mPa·s | 0.38 ± 0.015 mPa·s | viscosity (353.2 K, 30000 kPa): 0.415 ± 0.017 mPa·s; viscosity (353.2 K, 40000 kPa): 0.451 ± 0.018 mPa·s; viscosity (353.2 K, 50000 kPa): 0.489 ± 0.02 mPa·s; viscosity (353.2 K, 60000 kPa): 0.526 ± 0.021 mPa·s; viscosity (373.2 K, 690 kPa): 0.269 ± 0.011 mPa·s; viscosity (373.2 K, 5000 kPa): 0.279 ± 0.011 mPa·s; viscosity (373.2 K, 10000 kPa): 0.291 ± 0.012 mPa·s; viscosity (373.2 K, 20000 kPa): 0.316 ± 0.013 mPa·s; viscosity (373.2 K, 30000 kPa): 0.344 ± 0.014 mPa·s; viscosity (373.2 K, 40000 kPa): 0.372 ± 0.015 mPa·s; viscosity (373.2 K, 50000 kPa): 0.402 ± 0.016 mPa·s; viscosity (373.2 K, 60000 kPa): 0.434 ± 0.018 mPa·s; viscosity (393.2 K, 690 kPa): 0.239 ± 0.01 mPa·s; viscosity (393.2 K, 5000 kPa): 0.246 ± 0.01 mPa·s; viscosity (393.2 K, 10000 kPa): 0.255 ± 0.01 mPa·s; viscosity (393.2 K, 20000 kPa): 0.273 ± 0.011 mPa·s; viscosity (393.2 K, 30000 kPa): 0.294 ± 0.012 mPa·s; viscosity (393.2 K, 40000 kPa): 0.315 ± 0.013 mPa·s; viscosity (393.2 K, 50000 kPa): 0.339 ± 0.014 mPa·s; viscosity (393.2 K, 60000 kPa): 0.364 ± 0.015 mPa·s
